Data: US11524966B1 (Valo Early Discovery, Inc., priority 2017, dated 2022)

Each molecule was assayed against T1, USP28 (USP28-5(1-1077)-TEV-6*His; LifeSensors) (Homo sapiens, UniProt Q96RU2) (assay: Ubiquitin-Rhodamine 110 Assay for USP28 Activity, Example A-1(b)). Conditions: Ubiquitin-Rhodamine 110 assay, Example A-1(b).
T1 construct: construct USP28 (USP28-5(1-1077)-TEV-6*His; LifeSensors); TEV cleavage site (C); 6xHis (C); purchased LifeSensors
T1 sequence (Q96RU2 1-1077): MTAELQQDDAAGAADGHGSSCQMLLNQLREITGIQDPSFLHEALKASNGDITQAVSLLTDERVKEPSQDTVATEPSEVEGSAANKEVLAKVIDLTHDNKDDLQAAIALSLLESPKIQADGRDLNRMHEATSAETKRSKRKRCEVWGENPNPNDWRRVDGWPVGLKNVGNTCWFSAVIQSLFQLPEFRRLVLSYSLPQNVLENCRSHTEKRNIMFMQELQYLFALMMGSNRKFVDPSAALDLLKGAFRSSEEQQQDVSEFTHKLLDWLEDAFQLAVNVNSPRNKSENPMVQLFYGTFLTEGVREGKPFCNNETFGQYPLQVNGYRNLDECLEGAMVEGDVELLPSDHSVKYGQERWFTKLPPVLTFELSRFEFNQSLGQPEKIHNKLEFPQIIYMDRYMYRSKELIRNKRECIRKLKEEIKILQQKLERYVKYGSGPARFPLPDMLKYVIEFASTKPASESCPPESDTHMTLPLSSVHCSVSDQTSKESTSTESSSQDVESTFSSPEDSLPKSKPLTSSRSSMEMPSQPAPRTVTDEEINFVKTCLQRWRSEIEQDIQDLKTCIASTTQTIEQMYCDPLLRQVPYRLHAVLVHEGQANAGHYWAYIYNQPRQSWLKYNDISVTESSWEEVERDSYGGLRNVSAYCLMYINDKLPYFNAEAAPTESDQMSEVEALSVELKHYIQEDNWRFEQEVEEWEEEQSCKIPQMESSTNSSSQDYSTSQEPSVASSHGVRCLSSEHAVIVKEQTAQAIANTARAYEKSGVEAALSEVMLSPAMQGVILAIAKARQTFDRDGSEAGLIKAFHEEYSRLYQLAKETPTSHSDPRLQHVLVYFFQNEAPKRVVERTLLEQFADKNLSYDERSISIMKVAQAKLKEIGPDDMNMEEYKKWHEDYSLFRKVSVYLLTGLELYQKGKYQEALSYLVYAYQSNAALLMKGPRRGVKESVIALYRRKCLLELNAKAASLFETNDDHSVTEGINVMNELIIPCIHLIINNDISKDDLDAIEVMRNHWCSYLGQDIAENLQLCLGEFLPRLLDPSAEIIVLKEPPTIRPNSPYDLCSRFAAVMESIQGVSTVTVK
Assay type: biochemical
In short: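 Single-point screening used 10 μM compound with 90 min room-temperature incubation; follow-up dose-responses (25 μM top, 3-fold) used 75 pM USP28 1-1077 construct, 30 min compound preincubation, 25 nM Ub-Rh110, 20 min reaction, citric acid quench. Rh110 fluorescence normalised to no-enzyme and DMSO controls; IC50 from 4-parameter logistic fit.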

| Compound | USP28 A-1(b) IC50 range |
| --- | --- |
| Cc1ccc2c(N)c(C(=O)N[C@@H]3CCc4cc(N5CC6CNCC(C5)O6)ccc4C3)sc2n1 [Example 451, N-((2R)-6-(9-oxa-3,7-diazabicyclo[3.3.1]nonan-3-yl)-1,2,3,4-tetrahydronaphthalen-2-yl)-3-amino-6-methylthieno[2,3-b]pyridine-2-carboxamide] | ++ (0.2-2 μM) |
| Cc1ccc2c(N)c(C(=O)N[C@H]3COc4cc(N5CCS(=O)(=O)CC5)ccc4C3)sc2n1 [Example 5-2, (R)-3-amino-N-(7-(1,1-dioxidothiomorpholino)chroman-3-yl)-6-methylthieno[2,3-b]pyridine-2-carboxamide] | +++ (0.05-0.2 μM) |
| Cc1ccc2c(N)c(C(=O)N[C@H]3COc4cc(N5CC[C@@]6(CCCNC6)C5)ccc4C3)sc2n1 [Example 3-14, N-((R)-7-((R)-2,7-diazaspiro[4.5]decan-2-yl)chroman-3-yl)-3-amino-6-methylthieno[2,3-b]pyridine-2-carboxamide] | +++ (0.05-0.2 μM) |
| O=C(N[C@H]1COc2cc(N3CCNCC3)ccc2C1)c1cnn2cc(Cl)ccc12 [Example 462, (R)-6-chloro-N-(7-(piperazin-1-yl)chroman-3-yl)pyrazolo[1,5-a]pyridine-3-carboxamide] | + (>2 μM) |
| Cc1ccc2c(N)c(C(=O)N[C@H]3COc4cc(N5CC(O)(C(F)(F)F)C5)ccc4C3)sc2n1 [Example 5-3, (R)-3-amino-N-(7-(3-hydroxy-3-(trifluoromethyl)azetidin-1-yl)chroman-3-yl)-6-methylthieno[2,3-b]pyridine-2-carboxamide] | +++ (0.05-0.2 μM) |
| Cc1ccc2c(N)c(C(=O)N[C@H]3COc4cc(N5CCC(O)CC5)ccc4C3)sc2n1 [Example 7-1, (R)-3-amino-N-(7-(4-hydroxypiperidin-1-yl)chroman-3-yl)-6-methylthieno[2,3-b]pyridine-2-carboxamide] | +++ (0.05-0.2 μM) |
| O=C(N[C@H]1COc2cc(N3CCNCC3)ccc2C1)c1ccc(NCc2cccc(C(F)(F)F)c2)nc1 [Example 469, (R)-N-(7-(piperazin-1-yl)chroman-3-yl)-6-((3-(trifluoromethyl)benzyl)amino)nicotinamide] | ++ (0.2-2 μM) |
| COC[C@@H]1CN(c2ccc3c(n2)OC[C@H](NC(=O)c2sc4nc(C)cc(C)c4c2N)C3)C[C@@H]1N [Example 348, 3-amino-N-[(3R)-7-[(3R,4R)-3-amino-4-(methoxymethyl)pyrrolidin-1-yl]-2H,3H,4H-pyrano[2,3-b]pyridin-3-yl]-4,6-dimethylthieno[2,3-b]pyridine-2-carboxamide] | + (>2 μM) |
| CC(=O)N1CCCc2cc(C(=O)N[C@H]3COc4cc(N5CCNCC5)ccc4C3)ccc21 [Example 459, (R)-1-acetyl-N-(7-(piperazin-1-yl)chroman-3-yl)-1,2,3,4-tetrahydroquinoline-6-carboxamide] | + (>2 μM) |
| O=C(N[C@H]1COc2cc(N3CCNCC3)ccc2C1)c1ccc(NCc2ccccn2)nc1 [Example 470, (R)-N-(7-(piperazin-1-yl)chroman-3-yl)-6-((pyridin-2-ylmethyl)amino)nicotinamide] | + (>2 μM) |
| Cc1cc(C)n2ncc(C(=O)N[C@H]3COc4cc(N5CCNCC5)ccc4C3)c2n1 [Example 463, (R)-5,7-dimethyl-N-(7-(piperazin-1-yl)chroman-3-yl)pyrazolo[1,5-a]pyrimidine-3-carboxamide] | + (>2 μM) |
| O=C(N[C@H]1COc2cc(N3CCNCC3)ccc2C1)c1ccc(NCc2cccnc2)nc1 [Example 468, (R)-N-(7-(piperazin-1-yl)chroman-3-yl)-6-((pyridin-3-ylmethyl)amino)nicotinamide] | + (>2 μM) |
| Cc1ccc2c(N)c(C(=O)N[C@H]3COc4cc(N5CC6COCC(C5)C6(F)F)ccc4C3)sc2n1 [Example 5-4, 3-amino-N-((3R)-7-(9,9-difluoro-3-oxa-7-azabicyclo[3.3.1]nonan-7-yl)chroman-3-yl)-6-methylthieno[2,3-b]pyridine-2-carboxamide] | +++ (0.05-0.2 μM) |
| Cc1ccc2c(N)c(C(=O)N[C@H]3COc4cc(N5C[C@@H](N)[C@H](F)C5)ccc4C3)sc2n1 [Example 3-8, 3-amino-N-((R)-7-((3R,4R)-3-amino-4-fluoropyrrolidin-1-yl)chroman-3-yl)-6-methylthieno[2,3-b]pyridine-2-carboxamide] | ++ (0.2-2 μM) |
| Cc1cnc2c(N)c(C(=O)N[C@H]3CCc4cc(N5CC6COCC(C5)N6)ccc4C3)sc2n1 [Example 456, N-((2S)-6-(3-oxa-7,9-diazabicyclo[3.3.1]nonan-7-yl)-1,2,3,4-tetrahydronaphthalen-2-yl)-7-amino-3-methylthieno[2,3-b]pyrazine-6-carboxamide] | ++ (0.2-2 μM) |
| O=C(N[C@H]1COc2cc(N3CCNCC3)ccc2C1)c1ccc(NCc2ccc3c(c2)OCCO3)nc1 [Example 471, (R)-6-(((2,3-dihydrobenzo[b][1,4]dioxin-6-yl)methyl)amino)-N-(7-(piperazin-1-yl)chroman-3-yl)nicotinamide] | + (>2 μM) |
| O=C(N[C@H]1COc2cc(N3CCNCC3)ccc2C1)c1ccc(NCc2cccc(Cl)c2)nc1 [Example 467, (R)-6-((3-chlorobenzyl)amino)-N-(7-(piperazin-1-yl)chroman-3-yl)nicotinamide] | ++ (0.2-2 μM) |
| Cc1ccc2c(N)c(C(=O)N[C@H]3COc4cc(N5C[C@H](N)[C@@H](F)C5)ccc4C3)sc2n1 [Example 3-7, 3-amino-N-((R)-7-((3S,4S)-3-amino-4-fluoropyrrolidin-1-yl)chroman-3-yl)-6-methylthieno[2,3-b]pyridine-2-carboxamide] | ++ (0.2-2 μM) |
| Cc1ccc2c(N)c(C(=O)N[C@H]3COc4cc(N5CC[C@]6(CCCNC6)C5)ccc4C3)sc2n1 [Example 3-13, N-((R)-7-((S)-2,7-diazaspiro[4.5]decan-2-yl)chroman-3-yl)-3-amino-6-methylthieno[2,3-b]pyridine-2-carboxamide] | +++ (0.05-0.2 μM) |
| Cc1cnc2c(N)c(C(=O)N[C@H]3CCc4cc(N5CC6CNCC(C5)O6)ccc4C3)sc2n1 [Example 448, N-((2S)-6-(9-oxa-3,7-diazabicyclo[3.3.1]nonan-3-yl)-1,2,3,4-tetrahydronaphthalen-2-yl)-7-amino-3-methylthieno[2,3-b]pyrazine-6-carboxamide] | ++ (0.2-2 μM) |
| Cc1ccc2c(N)c(C(=O)N[C@H]3COc4cc(N5CC[C@H](C(=O)O)C5)ccc4C3)sc2n1 [Example 6-3, (S)-1-((R)-3-(3-amino-6-methylthieno[2,3-b]pyridine-2-carboxamido)chroman-7-yl)pyrrolidine-3-carboxylic acid] | ++ (0.2-2 μM) |
| Cc1ccc2c(N)c(C(=O)N[C@H]3COc4cc(N5CCC(F)(F)CC5)ccc4C3)sc2n1 [Example 5-1, (R)-3-amino-N-(7-(4,4-difluoropiperidin-1-yl)chroman-3-yl)-6-methylthieno[2,3-b]pyridine-2-carboxamide] | ++++ (0.001-0.05 μM) |
| Cc1cnc2c(N)c(C(=O)N[C@@H]3CCc4cc(N5CCCNCC5)ccc4C3)sc2n1 [Example 452, (R)-N-(6-(1,4-diazepan-1-yl)-1,2,3,4-tetrahydronaphthalen-2-yl)-7-amino-3-methylthieno[2,3-b]pyrazine-6-carboxamide] | + (>2 μM) |
| Cc1ccc2c(N)c(C(=O)N[C@H]3CCc4nc(N5C[C@@H](N)[C@H](C(F)(F)F)C5)ccc4C3)sc2n1 [Example 364, 3-amino-N-[(6S)-2-[(3S,4R)-3-amino-4-(trifluoromethyl)pyrrolidin-1-yl]-5,6,7,8-tetrahydroquinolin-6-yl]-6-methylthieno[2,3-b]pyridine-2-carboxamide] | + (>2 μM) |
